Experimental data published in patent US20170121683A1, “ARYL HYDROCARBON RECEPTOR DISRUPTION AND ENHANCEMENT” (priority 2015, published 2017).

Test system: hESCs (H9)
Assay: Hemato-endothelial differentiation of hESCs, flow cytometry, fold change vs DMSO (Example 2)
Format: cell-based, human
Protocol: FIG. 7A. Schema of hESC differentiation into early hemato-endothelial cells as spin-embryoid bodies (spin-EBs). hESCs are made into spin-EBs at Day 0 and conditioned into mesoderm lineages for 6 days using defined cytokines (Stage 1). At Day 6, spin-EBs are transferred into hemato-endothelial culture media (Stage 2) to promote endothelial and hematopoietic cell differentiation. For these studies, cells are treated with either 1 μM SR-1, 10 nM TCDD, or DMSO vehicle control beginning at Day 6+0 with media exchanges and/or harvesting performed at Day 6+3, Day 6+6, and Day 6+9. FIG. 7B. Representative flow cytometry plots of one hESCs differentiation. Both adherent and non-adherent cell fractions are harvested at Day 6+3, Day 6+6, and Day 6+9 and assessed for endothelial cell (CD34^+CD31^+, CD34^+CD144^+) and hematopoietic progenitor cell (CD34^+CD43^+, CD34^+CD45^+) phenotypes. FIG. 7C. Fold change of the total percentage of each hemato-endothelial phenotype for SR-1 and TCDD treated hESCs normalized to matched DMSO treated controls. n=4-6, error bars represent SEM, *p<0.05 as compared to DMSO treated controls by student's t-test. N/A: Not applicable due to absence appreciable of CD34^+CD45^+ populations at Day 6+3 time point.
Single-cell adapted hESCs (H9) were maintained on irradiated mouse embryonic fibroblasts (MEF) in ES growth media, as previously described in Ferrell et al. Stem Cells. 2015; 33(4):1130-41. hESCs were allowed to differentiate as spin-embryoid bodies (EBs) as previously described in Ferrell et al. and Ng et al. Nat. Protoc. 2008; 3(5):768-776 (FIG. 7A). In brief, hESCs were plated at 3,000 cells/100 μL in a round-bottom 96-well plate using serum-free BPEL media supplemented with 20 ng/mL BMP4, 40 ng/mL SCF, and 20 ng/mL VEGF (all R&D Systems, Minneapolis, Minn.). Cells were centrifuged to form embryoid bodies (defined as Day 0) and were incubated for 6 additional days (defined as Day 6) to promote mesoderm induction. To differentiate early endothelial and hematopoietic progenitor cells, Day 6 EBs were transferred to pre-gelatinized 24-well plates (approx. 8-16 EBs/well) with BEL media supplemented with 40 ng/mL SCF, 40 ng/mL VEGF, […] thrombopoietin (all R&D Systems, Minneapolis, Minn.), 30 ng/mL IL-3, and 30 ng/mL IL-6 (both PeproTech, Rocky Hill, N.J.). To modulate AHR activity, EBs were treated at Day 6+0 with DMSO, 1 μM SR-1 (Cellagen Technologies, San Diego, Calif.), or 10 nM 2,3,7,8-tetrachlorodibenzo-p-dioxin (TCDD) (Sigma-Aldrich, St. Louis, Mo.). Media was exchanged every 3 days with small molecule and cytokine supplementation. At indicated time points, non-adherent cell fractions were collected and saved while the remaining adherent fractions were treated with 0.05% trypsin containing 2% chicken serum. Adherent cells were combined with the non-adherent fractions for analysis, unless otherwise stated.
The following additional antibodies were used (all anti-human): LFA-1 (CD11a/CD18)-APC-R700 (BD Biosciences), CD31-APC (eBioscience), CD33-APC (BD Biosciences), CD34-PECy7 (BD Biosciences), CD34-APC (BD Biosciences), CD41a-APC (BD Biosciences), CD43-APC (BD Biosciences), CD45-APC (BD Biosciences), CD56-PECy7 (BD Biosciences), CD56-BV421 (BD Biosciences), CD94-PerCP-Cy5.5 (BD Biosciences), CD117-PECy7 (BD Biosciences), CD117-APC (eBiosciences), CD144-APC (eBioscience). Samples were analyzed on either an LSRFortessa or LSRII flow cytometer (BD Biosciences). Gating was set relative to isotype controls of identical fluorophores. Data from flow cytometry was analyzed using FlowJo software (Treestar, Ashland, Oreg.).

In the case of `CC(C)n1cnc2c(NCCc3ccc(O)cc3)nc(-c3csc4ccccc34)nc21` [SR-1, StemReginin-1], the “total percentage of CD34+CD31+ cells, fold vs DMSO controls” value (Day 6+3, 1 μM SR-1) is reported as 1.58±0.28 fold, the “total percentage of CD34+CD144+ cells, fold vs DMSO controls” value (Day 6+3, 1 μM SR-1) is reported as 1.71±0.22 fold and the “total percentage of CD34+CD31+ hemato-endothelial cells, fold vs DMSO controls” value (Day 6+6, 1 μM SR-1) is reported as 1.62±0.12 fold. The “total percentage of CD34+CD43+ hematopoietic progenitor cells, fold vs DMSO controls” value (Day 6+6, 1 μM SR-1) was 1.36±0.12 fold and the “CD34+CD45+ hematopoietic progenitor cells, fold change normalized to DMSO” value (Day 6+9, 10 nM TCDD) was 1.40±0.11.

In the case of `Clc1cc2c(cc1Cl)Oc1cc(Cl)c(Cl)cc1O2` [TCDD, 2,3,7,8-tetrachlorodibenzo-p-dioxin], the “CD34+CD45+ hematopoietic progenitor cells, fold change normalized to DMSO” value (Day 6+9, 10 nM TCDD) is reported as 0.44±0.06, the “total percent of CD34+CD31+ cells, fold change normalized to DMSO” value (Day 6+9, 10 nM TCDD) is reported as 0.49±0.06 and the “total percent of CD34+CD43+ cells, fold change normalized to DMSO” value (Day 6+9, 10 nM TCDD) is reported as 0.67±0.09. For the same molecule, the “total percent of CD34+CD144+ cells, fold change normalized to DMSO” value (Day 6+9, 10 nM TCDD) was 0.33±0.13 and the “total percent of CD34− hematopoietic cells” value (Day 6+9, 10 nM TCDD) was “increase”.
